In US20260166046A1, “Inhibitors of methionine aminopeptidase-2 and methods of preparation and uses thereof” (Primetime Life Sciences LLC, priority 2022, published 2026):
Where two headings read alike, the source gives them in different places.

Experiments:
G. lamblia GS = experiment: Trophozoite viability IC50 determination, Giardia assay (ATPLite); assay type: cell-based; details: read-out: Cell viability values Mean IC50 (nM) G. lamblia GS
Procedure: (§1) Giardia cultures: Trophozoites of G. lamblia isolates WB and GS were grown anaerobically in borosilicate glass screw-cap culture tubes (Fisher Scientific) at pH 7.0 in modified TYI-S-33 medium. The medium was supplemented with 10% heat-inactivated bovine serum (Sigma-Aldrich) and 0.05% bovine bile (Sigma-Aldrich). To attain low-oxygen-tension conditions, the tubes were filled to 85 to 90% of their total volume capacity and incubated without shaking at 37° C. Subcultures (2×10^5 trophozoites per tube) were made three times a week. Detachment of trophozoites for inoculation was achieved by chilling the cultures on ice for 20 min. Culturing and detachment of Metronidazole-resistant G. lamblia Assemblage A 713M3 and assemblage B 1279-M1 trophozoites followed the same protocol, except that the growth medium was supplemented with metronidazole gradually increasing the concentration to 10 μM. Amebae cultures: E. histolytica strain HM1:IMSS trophozoites were grown at 37° C. in TYI-S-33 medium supplemented with penicillin (100 U/mL) and streptomycin sulfate (100 μg/mL). Trophozoites were grown anaerobically in borosilicate tubes and subcultures were made 1-2 times a week. Trophozoites were detached for inoculation by chilling the cultures on ice for 20 minutes.
(§2) Trophozoite viability IC50determination
(§3) Giardia assays: 10 μL giardia trophozoites in growth medium were plated at a density of 10,000 cells/well in sterile 96-well black clear bottom assay plates. Fumagillin and fumagillol derivatives were 1:3 serially diluted from a 1 μM DMSO stock solution and then 100 μL/well were transferred in duplicate to the assay wells. Metronidazole (control) was 1:3 serially diluted in growth medium from a 100 μM stock solution in DMSO. The assay plates were placed in a BD GasPak™ EZ Container System (BD Diagnostics) to create an anaerobic growth environment. The sealed containers were incubated at 37° C. for 72 hr. Following incubation, 70 μL/well of the ATPLite reagent (PerkinElmer) was added to the assay plates for one-step lysis and ATP level detection. The luminescent signals of the assay plates were measured on an EnSpire 2300 plate reader (PerkinElmer). Concentration response titration points for each compound were fitted to a 4-parameters logistic nonlinear regression model using KaleidaGraph, yielding the IC50value and standard error (SE).

G. lamblia WB = experiment: as above; assay type: cell-based; details: Giardia duodenalis, read-out: Cell viability values Mean IC50 (nM) G. lamblia WB
Procedure: as §1, §2, §3

E. histolytica HM1: IMSS = experiment: Trophozoite viability IC50 determination, Amebae assay (ATPLite); assay type: cell-based; details: Entamoeba histolytica, read-out: Cell viability values Mean IC50 (nM) E. histolytica HM1: IMSS
Procedure: as §1, §2, §3
Amebae assays: The protocol is identical to that described above except that the trophozoites were plated at a density of 5000 cells/well because of their larger size.

Recombinant human MetAP2 = target: T1, Recombinant human MetAP2 (Homo sapiens, UniProt P50579); experiment: MetAP2 fluorescence assay; assay type: biochemical; details: recombinant human MetAP2, H-Met-Gly-Pro-AMC substrate
T1 construct: purchased Bio-Techne/R&D systems
Procedure: MetAP2 Fluorescence Assay
Recombinant human MetAP2 (Bio-Techne/R&D systems) was diluted to 10 μg/mL in the assay buffer (50 mM HEPES, 0.1 mM CoCl2, 100 mM NaCl, pH 7.5). The substrate, H-Met-Gly-Pro-AMC (Bio-Techne/R&D systems), was diluted to 500 μM with 2 μg/mL of the coupling enzyme, recombinant human dipeptidyl peptidase-4 (Bio-Techne/R&D systems), in assay buffer. 50 μL of 10 μg/mL recombinant human METAP2 were loaded into a flat-bottom black 96-well plate (Greiner Bio), and the reaction was initiated by adding 50 μL of the substrate/dipeptidyl peptidase-4 mixture. The reaction mixture was incubated at room temperature for 10 minutes, and the fluorescence was measured for 5 minutes at excitation and emission wavelengths of 380 nm and 460 nm, respectively, in kinetic mode. For IC50determination, 0.5 μL inhibitor solution was added to the reaction mixture. The reaction rates were used to calculate IC50with KaleidaGraph.

[1] = Giardia duodenalis, trophozoites, 72 hr, anaerobic, ATP level
[2] = trophozoites, 72 hr, anaerobic, ATP level

T1 sequence (P50579 whole entry): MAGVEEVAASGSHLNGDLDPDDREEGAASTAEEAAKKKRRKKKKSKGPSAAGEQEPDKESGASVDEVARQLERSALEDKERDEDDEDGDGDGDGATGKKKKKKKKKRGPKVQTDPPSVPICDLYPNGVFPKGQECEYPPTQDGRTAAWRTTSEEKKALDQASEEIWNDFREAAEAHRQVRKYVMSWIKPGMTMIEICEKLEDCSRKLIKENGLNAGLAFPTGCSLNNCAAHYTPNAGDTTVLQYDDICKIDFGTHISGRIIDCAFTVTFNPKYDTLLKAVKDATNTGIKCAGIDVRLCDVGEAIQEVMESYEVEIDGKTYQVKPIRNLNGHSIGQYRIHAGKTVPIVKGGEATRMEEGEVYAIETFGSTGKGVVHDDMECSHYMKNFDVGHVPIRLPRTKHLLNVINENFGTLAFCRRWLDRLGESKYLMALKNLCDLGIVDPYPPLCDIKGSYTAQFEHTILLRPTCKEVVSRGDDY

SMILES | IC50 (G. lamblia GS; [1]) [nM] | IC50 (G. lamblia WB; [2]) [nM] | IC50 (E. histolytica HM1: IMSS; [2]) [nM] | IC50 (Recombinant human MetAP2) [nM] | IC50 (G. lamblia GS; Giardia duodenalis, 72 h) [nM] | IC50 (G. lamblia WB; 72 h) [nM] | IC50 (E. histolytica HM1: IMSS; 72 h) [nM] | IC50 (G. lamblia GS; [2]) [nM]
CO[C@@H]1[C@H](OC(=O)Nc2ccc3c(c2)COB3O)CC[C@]2(CO2)[C@H]1[C@@]1(C)O[C@@H]1CC=C(C)C [No 1, (3R,4S,5S,6R)-5-methoxy-4-((2R,3R)-2-methyl-3-(3-methylbut-2-en-1-yl)oxiran-2-yl)-1-oxaspiro[2.5]octan-6-yl (1-hydroxy-1,3-dihydrobenzo[c][1,2]oxaborol-5-yl)carbamate] | < 10 | < 10 | < 10 | – | – | – | – | –
CO[C@@H]1[C@H](OC(=O)Nc2ccc3c(c2)C(C)OB3O)CC[C@]2(CO2)[C@H]1[C@@]1(C)O[C@@H]1CC=C(C)C (stereo partly drawn) [No 2] | < 10 | < 10 | < 10 | < 10 | – | – | – | –
CO[C@@H]1[C@H](OC(=O)Nc2ccc3c(c2)C(C)(C)OB3O)CC[C@]2(CO2)[C@H]1[C@@]1(C)O[C@@H]1CC=C(C)C [No 3] | – | – | – | < 10 | < 10 | < 10 | < 10 | –
CO[C@@H]1[C@H](OC(=O)Nc2cc3c(cc2F)B(O)OC3(C)C)CC[C@]2(CO2)[C@H]1[C@@]1(C)O[C@@H]1CC=C(C)C [No 4] | – | – | – | < 10 | – | – | – | < 10
CO[C@@H]1[C@H](OC(=O)N(C)c2ccc3c(c2)COB3O)CC[C@]2(CO2)[C@H]1[C@@]1(C)O[C@@H]1CC=C(C)C [No 5] | – | – | – | < 10 | – | – | – | –
CO[C@@H]1[C@H](OC(=O)Nc2ccc3c(c2)B(O)OC3)CC[C@]2(CO2)[C@H]1[C@@]1(C)O[C@@H]1CC=C(C)C [No 6] | – | – | – | < 10 | < 10 | 10.1 to 100 | 10.1 to 100 | –
CO[C@@H]1[C@H](OC(=O)Nc2ccc3c(c2)B(O)OC3C)CC[C@]2(CO2)[C@H]1[C@@]1(C)O[C@@H]1CC=C(C)C (stereo partly drawn) [No 7] | – | – | – | < 10 | – | – | – | < 10
CO[C@@H]1[C@H](OC(=O)Nc2cc(F)c3c(c2)B(O)OC3)CC[C@]2(CO2)[C@H]1[C@@]1(C)O[C@@H]1CC=C(C)C [No 8] | – | – | – | < 10 | – | – | – | < 10
CO[C@@H]1[C@H](OC(=O)Nc2cc(Cl)c3c(c2)B(O)OC3)CC[C@]2(CO2)[C@H]1[C@@]1(C)O[C@@H]1CC=C(C)C [No 10] | – | – | – | < 10 | 10.1 to 100 | 10.1 to 100 | 10.1 to 100 | –
CO[C@@H]1[C@H](OC(=O)Nc2cccc3c2COB3O)CC[C@]2(CO2)[C@H]1[C@@]1(C)O[C@@H]1CC=C(C)C [No 12] | – | – | – | < 10 | 10.1 to 100 | 101 to 1000 | 101 to 1000 | –
CO[C@@H]1[C@H](OC(=O)Nc2ccc3c(c2)CCOB3O)CC[C@]2(CO2)[C@H]1[C@@]1(C)O[C@@H]1CC=C(C)C [No 13] | – | – | – | < 10 | < 10 | 10.1 to 100 | 101 to 1000 | –
CO[C@@H]1[C@H](OC(=O)Nc2ccc3c(c2)B(O)OCC3)CC[C@]2(CO2)[C@H]1[C@@]1(C)O[C@@H]1CC=C(C)C [No 14] | – | – | – | < 10 | 10.1 to 100 | 101 to 1000 | 101 to 1000 | –
CO[C@@H]1[C@H](OC(=O)N(C)c2ccc3c(c2)CCOB3O)CC[C@]2(CO2)[C@H]1[C@@]1(C)O[C@@H]1CC=C(C)C [No 15] | – | – | – | < 10 | 101 to 1000 | 101 to 1000 | 101 to 1000 | –
CO[C@@H]1[C@H](OC(=O)N(C)c2ccc3c(c2)B(O)OCC3)CC[C@]2(CO2)[C@H]1[C@@]1(C)O[C@@H]1CC=C(C)C [No 16] | 101 to 1000 | 101 to 1000 | 101 to 1000 | < 10 | – | – | – | –
CO[C@@H]1[C@H](OC(=O)Nc2ccc(B(O)O)cc2)CC[C@]2(CO2)[C@H]1[C@@]1(C)O[C@@H]1CC=C(C)C [No 17] | < 10 | 10.1 to 100 | 10.1 to 100 | < 10 | – | – | – | –
CO[C@@H]1[C@H](OC(=O)Nc2cccc(B(O)O)c2)CC[C@]2(CO2)[C@H]1[C@@]1(C)O[C@@H]1CC=C(C)C [No 18] | – | – | – | < 10 | 10.1 to 100 | 101 to 1000 | 101 to 1000 | –
CO[C@@H]1[C@H](OC(=O)Nc2ccccc2B(O)O)CC[C@]2(CO2)[C@H]1[C@@]1(C)O[C@@H]1CC=C(C)C [No 19] | – | – | – | < 10 | 10.1 to 100 | 101 to 1000 | 101 to 1000 | –

SMILES | IC50 (G. lamblia GS; [1]) [nM] | IC50 (G. lamblia WB; [2]) [nM] | IC50 (E. histolytica HM1: IMSS; [2]) [nM] | IC50 (Recombinant human MetAP2) [nM] | IC50 (G. lamblia GS; Giardia duodenalis, 72 h) [nM] | IC50 (G. lamblia WB; 72 h) [nM] | IC50 (E. histolytica HM1: IMSS; 72 h) [nM] | IC50 (G. lamblia GS; [2]) [nM]
CO[C@@H]1[C@H](OC(=O)N(C)c2ccc(B(O)O)cc2)CC[C@]2(CO2)[C@H]1[C@@]1(C)O[C@@H]1CC=C(C)C [No 20] | 101 to 1000 | 101 to 1000 | 101 to 1000 | < 10 | – | – | – | –
CO[C@@H]1[C@H](OC(=O)Nc2cc(B(O)O)cc(C(=O)O)c2)CC[C@]2(CO2)[C@H]1[C@@]1(C)O[C@@H]1CC=C(C)C [No 21] | – | – | – | < 10 | 101 to 1000 | 101 to 1000 | 101 to 1000 | –
CO[C@@H]1[C@H](OC(=O)Nc2cc(C(=O)O)ccc2B(O)O)CC[C@]2(CO2)[C@H]1[C@@]1(C)O[C@@H]1CC=C(C)C [No 22] | 101 to 1000 | 101 to 1000 | 101 to 1000 | < 10 | – | – | – | –
CO[C@@H]1[C@H](OC(=O)Nc2cc(B(O)O)ccc2Cl)CC[C@]2(CO2)[C@H]1[C@@]1(C)O[C@@H]1CC=C(C)C [No 23] | – | – | – | < 10 | 101 to 1000 | 101 to 1000 | 101 to 1000 | –
CO[C@@H]1[C@H](OC(=O)Nc2cc(C#N)ccc2B(O)O)CC[C@]2(CO2)[C@H]1[C@@]1(C)O[C@@H]1CC=C(C)C [No 24] | – | – | – | < 10 | 101 to 1000 | 101 to 1000 | > 1000 | –
COC(=O)c1ccc(B(O)O)c(NC(=O)OC2CCC3(CO3)C(C3(C)OC3CC=C(C)C)C2OC)c1 (stereo not drawn) [No 26] | – | – | – | – | 101 to 1000 | > 1000 | > 1000 | –
COC(=O)c1cc(NC(=O)OC2CCC3(CO3)C(C3(C)OC3CC=C(C)C)C2OC)cc(B(O)O)c1 (stereo not drawn) [No 27] | – | – | – | – | 101 to 1000 | 101 to 1000 | 101 to 1000 | –
COC1C(OC(=O)NCc2ccc(F)cc2B(O)O)CCC2(CO2)C1C1(C)OC1CC=C(C)C (stereo not drawn) [No 32] | – | – | – | – | 101 to 1000 | > 1000 | > 1000 | –
COC1C(OC(=O)NCc2cc(C#N)cc(B(O)O)c2)CCC2(CO2)C1C1(C)OC1CC=C(C)C (stereo not drawn) [No 36] | – | – | – | – | 101 to 1000 | > 1000 | > 1000 | –
CO[C@@H]1[C@H](OC(=O)NCCc2ccccc2B(O)O)CC[C@]2(CO2)[C@H]1[C@@]1(C)O[C@@H]1CC=C(C)C [No 39] | – | – | – | < 10 | 101 to 1000 | > 1000 | – | –
COC1C(OC(=O)NCc2cncc(B(O)O)c2)CCC2(CO2)C1C1(C)OC1CC=C(C)C (stereo not drawn) [No 42] | – | – | – | – | 101 to 1000 | > 1000 | > 1000 | –
COC1C(OC(=O)N2CCC(n3cc(B(O)O)cn3)CC2)CCC2(CO2)C1C1(C)OC1CC=C(C)C (stereo not drawn) [No 46] | – | – | – | – | 101 to 1000 | > 1000 | > 1000 | –
COC1C(OC(=O)N2CC(B(O)O)Cn3ccnc32)CCC2(CO2)C1C1(C)OC1CC=C(C)C (stereo not drawn) [No 56] | – | – | – | – | 101 to 1000 | > 1000 | > 1000 | –
COc1nsc(CNC(=O)OC2CCC3(CO3)C(C3(C)OC3CC=C(C)C)C2OC)c1B(O)O (stereo not drawn) [No 57] | – | – | – | – | 101 to 1000 | > 1000 | > 1000 | –
COC1C(OC(=O)NCCn2cc(B(O)O)cn2)CCC2(CO2)C1C1(C)OC1CC=C(C)C (stereo not drawn) [No 61] | – | – | – | – | 101 to 1000 | > 1000 | > 1000 | –
COC1C(OC(=O)N2CCOc3c(B(O)O)cncc32)CCC2(CO2)C1C1(C)OC1CC=C(C)C (stereo not drawn) [No 66] | – | – | – | – | 101 to 1000 | > 1000 | > 1000 | –
